In PubChem BioAssay AID2083 (Sanford-Burnham Center for Chemical Genomics, 2009):
pIC50: −log10 of the molar value.

biological target: Dual specificity protein phosphatase 1 (Homo sapiens) (UniProt P28562); assay: inhibitors of DUSP1 phosphatase activity – biochemical, DiFMUP, fluorescence, selectivity assay for VHR1 inhibitor project, SAR follow-up (AID 2083); details: recombinant MKP-1, DiFMUP fluorescence
Sequence (P28562 whole entry, looked up): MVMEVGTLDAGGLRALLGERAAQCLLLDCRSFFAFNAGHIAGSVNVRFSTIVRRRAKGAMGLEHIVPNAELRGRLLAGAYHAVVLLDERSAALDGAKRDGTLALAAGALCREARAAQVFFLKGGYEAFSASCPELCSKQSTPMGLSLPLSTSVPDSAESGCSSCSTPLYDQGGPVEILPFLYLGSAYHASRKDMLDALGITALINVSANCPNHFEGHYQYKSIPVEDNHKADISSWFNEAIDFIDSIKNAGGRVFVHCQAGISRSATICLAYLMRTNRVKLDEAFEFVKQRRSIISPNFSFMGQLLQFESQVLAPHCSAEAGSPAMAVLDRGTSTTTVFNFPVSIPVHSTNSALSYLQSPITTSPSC

| SMILES | pIC50 |
| --- | --- |
| O=C1/C(=C/c2cn(-c3ccccc3)nc2-c2ccc(OCc3ccc(Cl)cc3)cc2)SC(=S)N1CCS(=O)(=O)O | 6.34 |
| O=C1/C(=C/c2cn(-c3ccccc3)nc2-c2ccc(S(=O)(=O)N3CCCCC3)cc2)SC(=S)N1CCS(=O)(=O)O | 5.55 |

Continued, values first:

| pIC50 | SMILES |
| --- | --- |
| 6.28 | O=C1/C(=C/c2cn(-c3ccccc3)nc2-c2ccc(OCc3ccccc3F)cc2)SC(=S)N1CCS(=O)(=O)O |
| 6.11 | O=C1/C(=C/c2cn(-c3ccccc3)nc2-c2ccc(OCc3ccccc3)cc2)SC(=S)N1CCS(=O)(=O)O |
| 6.33 | O=C1/C(=C/c2cn(-c3ccccc3)nc2-c2ccc(OCc3ccccc3Cl)cc2)SC(=S)N1CCS(=O)(=O)O |
